Results reported in ChEMBL document CHEMBL1201862, “PubChem BioAssay data set” (2004).
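Cultured in 96-well plates, cells were exposed to test compound for 48 hours across five concentrations. GI50: concentration for 50% inhibition of growth.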 The source made the active and inactive calls. Rule as the data show it: active = GI50 up to about 1.1 µM and inactive = higher.

Columns and labels:
Assay in all cases: NCI anticancer screen, dose series, 48 h
786-0 = test system: 786-0
A498 = test system: A498
A549 = test system: A549
ACHN = test system: ACHN
CAKI-1 = test system: CAKI-1
CCRF-CEM = test system: CCRF-CEM
DU-145 = test system: DU-145
HCC 2998 = test system: HCC 2998
MCF7 = test system: MCF7
Malme-3M = test system: Malme-3M
OVCAR-4 = test system: OVCAR-4
OVCAR-5 = test system: OVCAR-5
OVCAR-8 = test system: OVCAR-8
RXF 393 = test system: RXF 393
SF-539 = test system: SF-539
SK-MEL-28 = test system: SK-MEL-28
SN12C = test system: SN12C
SR = test system: SR
SW-620 = test system: SW-620
U-251 = test system: U-251

Measured: GI50

O=C1C=C(Nc2nc(O)cc(C(=O)O)n2)c2ccccc2C1=O
inactive: 786-0 > 100 µM | A498 > 100 µM | A549 > 100 µM | ACHN > 100 µM | CAKI-1 > 100 µM | CCRF-CEM > 100 µM | DU-145 > 100 µM | HCC 2998 > 100 µM | MCF7 > 100 µM | Malme-3M > 100 µM | OVCAR-4 > 100 µM | OVCAR-5 > 100 µM | OVCAR-8 > 100 µM | RXF 393 > 100 µM | SF-539 > 100 µM | SK-MEL-28 > 100 µM | SN12C > 100 µM | SR > 100 µM | SW-620 > 100 µM | U-251 > 100 µM

CC(C)=CCC[C@@H](C)c1c2nc3ccccc3sc-2c(C)c(=O)c1O
inactive: 786-0 4.9 µM | A498 9.84 µM | A549 5.62 µM | ACHN 2.65 µM | CAKI-1 2.82 µM | CCRF-CEM 2.67 µM | DU-145 17.5 µM | HCC 2998 9.66 µM | MCF7 8.3 µM | Malme-3M 2.93 µM | OVCAR-4 6.43 µM | OVCAR-5 16.7 µM | OVCAR-8 2.94 µM | RXF 393 9.35 µM | SF-539 3.01 µM | SK-MEL-28 14.6 µM | SN12C 5.74 µM | SR 2.23 µM | SW-620 4.86 µM | U-251 6.38 µM

S=c1[nH]c(=S)c2cc(Sc3ccc4[nH]c(=S)[nH]c(=S)c4c3)ccc2[nH]1
inactive: 786-0 21.5 µM | A498 24.5 µM | A549 59.7 µM | ACHN 35.2 µM | CAKI-1 36.6 µM | CCRF-CEM 25.6 µM | DU-145 62.4 µM | HCC 2998 37.3 µM | MCF7 59.6 µM | Malme-3M 55.3 µM | OVCAR-4 23.2 µM | OVCAR-5 > 100 µM | OVCAR-8 22 µM | RXF 393 23.7 µM | SF-539 30.2 µM | SK-MEL-28 53.8 µM | SN12C 40 µM | SR 17.1 µM | SW-620 48.4 µM | U-251 33 µM

CC(=O)c1c2c(cc3c1CC1(Cc4ccccc4C1=O)C3)CCC2 (stereo not given)
inactive: 786-0 22.3 µM | A498 17.5 µM | A549 28.2 µM | ACHN 21.7 µM | CAKI-1 8.55 µM | CCRF-CEM 16.8 µM | DU-145 34.7 µM | HCC 2998 27.5 µM | MCF7 17.1 µM | Malme-3M 16.8 µM | OVCAR-4 75.2 µM | OVCAR-5 51.2 µM | OVCAR-8 18 µM | RXF 393 12 µM | SF-539 31.8 µM | SK-MEL-28 20.9 µM | SN12C 21.5 µM | SR 15.3 µM | SW-620 32.3 µM | U-251 24.4 µM

C[Si](C)(OCCS(=O)(=O)O)OC(=C1S(=O)(=O)OCCOS1(=O)=O)c1cccc2ccccc12
inactive: 786-0 > 100 µM | A498 98.4 µM | A549 > 100 µM | ACHN > 100 µM | CAKI-1 > 100 µM | CCRF-CEM > 100 µM | DU-145 > 100 µM | HCC 2998 90.6 µM | MCF7 67.6 µM | Malme-3M > 100 µM | OVCAR-4 > 100 µM | OVCAR-5 > 100 µM | OVCAR-8 > 100 µM | RXF 393 37.2 µM | SF-539 > 100 µM | SK-MEL-28 > 100 µM | SN12C > 100 µM | SR > 100 µM | SW-620 > 100 µM | U-251 > 100 µM
